Legend:
Type in all cases: in vivo
[1] = test system: Diabrotica balteata (corn root worm); assay: Example B1: Activity against Diabrotica balteata (corn root worm); conditions: 96 h, application rate 200 ppm, maize sprouts sprayed, L2 larvae, 4 days after infestation, read-out: effect in at least one of the two categories (mortality or growth inhibition)
Procedure: Example B1: Activity Against Diabrotica Balteata (Corn Root Worm)
Maize sprouts placed onto an agar layer in 24-well microtiter plates were treated with aqueous test solutions prepared from 10,000 ppm DMSO stock solutions by spraying. After drying, the plates were infested with L2 larvae (6 to 10 per well). The samples were assessed for mortality and growth inhibition in comparison to untreated samples 4 days after infestation.

[2] = test system: Euschistus heros (neotropical brown stink bug); assay: Example B2: Activity against Euschistus heros (neotropical brown stink bug); conditions: 120 h, application rate 200 ppm, soybean leaves sprayed, N2 nymphs, 5 days after infestation, read-out: effect in at least one of the two categories (mortality or growth inhibition)
Procedure: Example B2: Activity Against Euschistus heros (Neotropical Brown Stink Bug)
Soybean leaves on agar in 24-well microtiter plates were sprayed with aqueous test solutions prepared from 10,000 ppm DMSO stock solutions. After drying the leaves were infested with N2 nymphs. The samples were assessed for mortality and growth inhibition in comparison to untreated samples 5 days after infestation.

[3] = test system: Myzus persicae (green peach aphid); assay: Example B4: Activity against Myzus persicae (green peach aphid), feeding/contact activity; conditions: foliar, 144 h, application rate 200 ppm, sunflower leaf discs sprayed, aphid population of mixed ages, 6 days after infestation
Procedure: Example B4: Activity Against Myzus persicae (Green Peach Aphid) Feeding/Contact Activity
Sunflower leaf discs were placed onto agar in a 24-well microtiter plate and sprayed with aqueous test solutions prepared from 10,000 ppm DMSO stock solutions. After drying, the leaf discs were infested with an aphid population of mixed ages. The samples were assessed for mortality 6 days after infestation.

[4] = test system: Plutella xylostella (diamond back moth); assay: Example B5: Activity against Plutella xylostella (diamond back moth); conditions: 192 h, application rate 200 ppm, artificial diet treated by pipetting, eggs, 8 days after infestation, read-out: effect in at least one of the two categories (mortality or growth inhibition)
Procedure: Example B5: Activity Against Plutella xylostella (Diamond Back Moth)
24-well microtiter plates with artificial diet were treated with aqueous test solutions prepared from 10,000 ppm DMSO stock solutions by pipetting. After drying, Plutella eggs were pipetted through a plastic stencil onto a gel blotting paper and the plate was closed with it. The samples were assessed for mortality and growth inhibition in comparison to untreated samples 8 days after infestation. The following compounds gave an effect of at least 80% in at least one of the two categories (mortality or growth inhibition) at an application rate of 200 ppm: P1, P2, P4, P5, P6, P7, P9, P10, P11, P12, P13, P14, P15, P16, P17, P18.

[5] = test system: Spodoptera littoralis (Egyptian cotton leaf worm); assay: Example B6: Activity against Spodoptera littoralis (Egyptian cotton leaf worm); conditions: foliar, 72 h, application rate 200 ppm, cotton leaf discs sprayed, L1 larvae, 3 days after infestation, read-out: control (mortality, anti-feeding effect or growth inhibition)
Procedure: Example B6: Activity Against Spodoptera littoralis (Egyptian Cotton Leaf Worm)
Cotton leaf discs were placed onto agar in 24-well microtiter plates and sprayed with aqueous test solutions prepared from 10,000 ppm DMSO stock solutions. After drying the leaf discs were infested with five L1 larvae. The samples were assessed for mortality, anti-feeding effect, and growth inhibition in comparison to untreated samples 3 days after infestation. Control of Spodoptera littoralis by a test sample is given when at least one of the categories mortality, anti-feedant effect, and growth inhibition is higher than the untreated sample.

[6] = test system: Chilo suppressalis (striped rice stemborer); assay: Example B8: Activity against Chilo suppressalis (striped rice stemborer); conditions: 144 h, application rate 200 ppm, artificial diet treated by pipetting, L2 larvae, 6 days after infestation, read-out: control (mortality, anti-feeding effect or growth inhibition)
Procedure: Example B8: Activity Against Chilo suppressalis (Striped Rice Stemborer)
24-well microtiter plates with artificial diet were treated with aqueous test solutions prepared from 10,000 ppm DMSO stock solutions by pipetting. After drying, the plates were infested with L2 larvae (6-8 per well). The samples were assessed for mortality, anti-feeding effect, and growth inhibition in comparison to untreated samples 6 days after infestation. Control of Chilo suppressalis by a test sample is given when at least one of the categories mortality, anti-feedant effect, and growth inhibition is higher than the untreated sample.

[7] = test system: Myzus persicae (green peach aphid); assay: Example B9: Activity against Myzus persicae (green peach aphid), systemic activity; conditions: 144 h, test rate 24 ppm, roots of infested pea seedlings placed into test solution, 6 days
Procedure: Example B9: Activity Against Myzus persicae (Green Peach Aphid). Systemic Activity
Roots of pea seedlings infested with an aphid population of mixed ages were placed directly into aqueous test solutions prepared from 10,000 DMSO stock solutions. The samples were assessed for mortality 6 days after placing seedlings into test solutions.

CCS(=O)(=O)c1c(N2Cc3ncc(C(F)(F)F)cc3C2=O)nc(-c2cnn(C3CC3)c2)n1C [Compound P2, 6-[2-(1-cyclopropylpyrazol-4-yl)-5-ethylsulfonyl-1-methyl-imidazol-4-yl]-3-(trifluoromethyl)-7H-pyrrolo[3,4-b]pyridin-5-one]
≥ 80%: mortality or growth inhibition at 200 ppm [1] | percent effect (mortality or growth inhibition) at 200 ppm [2] | mortality at 200 ppm [3] | effect (mortality or growth inhibition) at 200 ppm [4] | control at 200 ppm [5] | control at 200 ppm [6] | mortality at 24 ppm [7]

CCS(=O)(=O)c1c(N2Cc3ncc(C(F)(F)F)cc3C2=O)nc(C2CC(C3CC3)=NO2)n1C (stereo not shown) [Compound P3, 6-[2-(3-cyclopropyl-4,5-dihydroisoxazol-5-yl)-5-ethylsulfonyl-1-methyl-imidazol-4-yl]-3-(trifluoromethyl)-7H-pyrrolo[3,4-b]pyridin-5-one]
≥ 80%: control at 200 ppm [6]

CCS(=O)(=O)c1c(N2Cc3ncc(C(F)(F)F)cc3C2=O)nc(-c2cnn(CC3(C#N)CC3)c2)n1C [Compound P4, 1-[[4-[5-ethylsulfonyl-1-methyl-4-[5-oxo-3-(trifluoromethyl)-7H-pyrrolo[3,4-b]pyridin-6-yl]imidazol-2-yl]pyrazol-1-yl]methyl]cyclopropane-carbonitrile]
≥ 80%: percent effect (mortality or growth inhibition) at 200 ppm [2] | mortality at 200 ppm [3] | effect (mortality or growth inhibition) at 200 ppm [4] | control at 200 ppm [6] | mortality at 24 ppm [7]

CCS(=O)(=O)c1c(N2Cc3ncc(C(F)(F)F)cc3C2=O)nc(-c2cnn(CC(F)F)c2)n1C [Compound P5, 6-[2-[1-(2,2-difluoroethyl)pyrazol-4-yl]-5-ethylsulfonyl-1-methyl-imidazol-4-yl]-3-(trifluoromethyl)-7H-pyrrolo[3,4-b]pyridin-5-one]
≥ 80%: percent effect (mortality or growth inhibition) at 200 ppm [2] | mortality at 200 ppm [3] | effect (mortality or growth inhibition) at 200 ppm [4] | control at 200 ppm [5] | control at 200 ppm [6] | mortality at 24 ppm [7]

CCS(=O)(=O)c1c(N2Cc3ncc(C(F)(F)F)cc3C2=O)nc(OCC(F)(F)F)n1C [Compound P6, 6-[5-ethylsulfonyl-1-methyl-2-(2,2,2-trifluoroethoxy)imidazol-4-yl]-3-(trifluoromethyl)-7H-pyrrolo[3,4-b]pyridin-5-one]
≥ 80%: mortality or growth inhibition at 200 ppm [1] | mortality at 200 ppm [3] | effect (mortality or growth inhibition) at 200 ppm [4] | control at 200 ppm [5] | control at 200 ppm [6] | mortality at 24 ppm [7]

CCS(=O)(=O)c1c(N2Cc3ccc(OC(F)(F)F)cc3C2=O)nc(-c2cncnc2)n1C [Compound P7, 2-(5-ethylsulfonyl-1-methyl-2-pyrimidin-5-yl-imidazol-4-yl)-6-(trifluoromethoxy)isoindolin-1-one]
≥ 80%: effect (mortality or growth inhibition) at 200 ppm [4] | control at 200 ppm [5] | control at 200 ppm [6]

CCS(=O)(=O)c1c(N2Cc3ncc(C(F)(F)F)cc3C2=O)nc(-c2cncnc2)n1C [Compound P8, 6-(5-ethylsulfonyl-1-methyl-2-pyrimidin-5-yl-imidazol-4-yl)-3-(trifluoromethyl)-7H-pyrrolo[3,4-b]pyridin-5-one]
≥ 80%: mortality at 24 ppm [7]

CCS(=O)(=O)c1c(N2Cc3ncc(C(F)(F)F)cc3C2=O)nc(-c2cnn(CC3CC3)c2)n1C [Compound P9, 6-[2-[1-(cyclopropylmethyl)pyrazol-4-yl]-5-ethylsulfonyl-1-methyl-imidazol-4-yl]-3-(trifluoromethyl)-7H-pyrrolo[3,4-b]pyridin-5-one]
≥ 80%: mortality or growth inhibition at 200 ppm [1] | percent effect (mortality or growth inhibition) at 200 ppm [2] | mortality at 200 ppm [3] | effect (mortality or growth inhibition) at 200 ppm [4] | control at 200 ppm [5] | control at 200 ppm [6] | mortality at 24 ppm [7]

CCS(=O)(=O)c1c(N2Cc3ccc(OC(F)(F)F)cc3C2=O)nc(-c2ncccn2)n1C [Compound P11, 2-(5-ethylsulfonyl-1-methyl-2-pyrimidin-2-yl-imidazol-4-yl)-6-(trifluoromethoxy)isoindolin-1-one]
≥ 80%: mortality or growth inhibition at 200 ppm [1] | percent effect (mortality or growth inhibition) at 200 ppm [2] | mortality at 200 ppm [3] | effect (mortality or growth inhibition) at 200 ppm [4] | control at 200 ppm [6] | mortality at 24 ppm [7]

CCS(=O)(=O)c1c(N2Cc3ncc(C(F)(F)F)cc3C2=O)nc(-c2ncccn2)n1C [Compound P12, 6-(5-ethylsulfonyl-1-methyl-2-pyrimidin-2-yl-imidazol-4-yl)-3-(trifluoromethyl)-7H-pyrrolo[3,4-b]pyridin-5-one]
≥ 80%: mortality or growth inhibition at 200 ppm [1] | percent effect (mortality or growth inhibition) at 200 ppm [2] | mortality at 200 ppm [3] | effect (mortality or growth inhibition) at 200 ppm [4] | control at 200 ppm [6] | mortality at 24 ppm [7]

CCS(=O)(=O)c1c(N2Cc3ncc(C(F)(F)F)cc3C2=O)nc(-n2cc(C(F)(F)F)cn2)n1C [Compound P14, 6-[5-ethylsulfonyl-1-methyl-2-[4-(trifluoromethyl)pyrazol-1-yl]imidazol-4-yl]-3-(trifluoromethyl)-7H-pyrrolo[3,4-b]pyridin-5-one]
≥ 80%: mortality or growth inhibition at 200 ppm [1] | percent effect (mortality or growth inhibition) at 200 ppm [2] | mortality at 200 ppm [3] | effect (mortality or growth inhibition) at 200 ppm [4] | control at 200 ppm [5] | control at 200 ppm [6]

CCS(=O)(=O)c1c(N2Cc3ncc(C(F)(F)F)cc3C2=O)nc(-n2ccc(C3CC3)n2)n1C [Compound P15, 6-[2-(3-cyclopropylpyrazol-1-yl)-5-ethylsulfonyl-1-methyl-imidazol-4-yl]-3-(trifluoromethyl)-7H-pyrrolo[3,4-b]pyridin-5-one]
≥ 80%: mortality or growth inhibition at 200 ppm [1] | percent effect (mortality or growth inhibition) at 200 ppm [2] | mortality at 200 ppm [3] | effect (mortality or growth inhibition) at 200 ppm [4] | control at 200 ppm [5]

CCS(=O)(=O)c1c(N2Cc3ncc(C(F)(F)F)cc3C2=O)nc(-n2ccc(Cl)n2)n1C [Compound P16, 6-[2-(3-chloropyrazol-1-yl)-5-ethylsulfonyl-1-methyl-imidazol-4-yl]-3-(trifluoromethyl)-7H-pyrrolo[3,4-b]pyridin-5-one]
≥ 80%: mortality or growth inhibition at 200 ppm [1] | percent effect (mortality or growth inhibition) at 200 ppm [2] | mortality at 200 ppm [3] | effect (mortality or growth inhibition) at 200 ppm [4] | control at 200 ppm [5] | control at 200 ppm [6]

CCS(=O)(=O)c1c(N2Cc3ncc(C(F)(F)F)cc3C2=O)nc(-c2ccc(C3(C#N)CC3)cc2)n1C [Compound P18, 1-[4-[5-ethylsulfonyl-1-methyl-4-[5-oxo-3-(trifluoromethyl)-7H-pyrrolo[3,4-b]pyridin-6-yl]imidazol-2-yl]phenyl]cyclopropane-carbonitrile]
≥ 80%: mortality or growth inhibition at 200 ppm [1] | mortality at 200 ppm [3] | effect (mortality or growth inhibition) at 200 ppm [4] | control at 200 ppm [5] | control at 200 ppm [6]

Reference: patent publication US20240018128A1, “PESTICIDALLY ACTIVE HETEROCYCLIC DERIVATIVES WITH SULFUR CONTAINING SUBSTITUENTS” (SYNGENTA CROP PROTECTION AG, priority 2020, published 2024)
